Test results as given in ChEMBL document CHEMBL1136640, “The newly synthesized linoleic acid derivative FR236924 induces a long-lasting facilitation of hippocampal neurotransmission by targeting nicotinic acetylcholine receptors” (2003).

Experiments:
Torpedo [1] = assay: Effect on Torpedo nicotinic ACh receptor responses at 0 min determined by measuring percentage of original amplitude
Torpedo [2] = assay: Effect on Torpedo nicotinic ACh receptor responses at 10 min determined by measuring percentage of original amplitude
Rattus norvegicus = assay: Intraperitoneal dose required to facilitate the hippocampal neurotransmission in rat; assay type: functional, Hippocampus

SMILES | Original amplitude (Torpedo [1]) [%] | Original amplitude (Torpedo [2]) [%] | Dose (Rattus norvegicus) [mg/kg]
CC/C=C\C/C=C\C/C=C\CCCCCCCC(=O)O | 77 | 272 | –
CCCCCC1CC1CC1CC1CC1CC1CC1CC1CCCC(=O)O (configuration not stated) | 88 | 78 | –
CCCCC/C=C\C/C=C\C/C=C\C/C=C\CCCC(=O)O | 78 | 139 | –

Further lines, with some results ahead:

Original amplitude (Torpedo [1]) [%] | Original amplitude (Torpedo [2]) [%] | SMILES | Dose (Rattus norvegicus) [mg/kg]
87 | 69 | CCC1CC1CC1CC1CC1CC1CCCCCCCC(=O)O (configuration not stated) | –
122 | 156 | CCCCCC1CC1CC1CC1CCCCCCCC(=O)O (configuration not stated) [FR-236924] | 2
108 | 139 | CCCCCCCC/C=C\CCCCCCCC(=O)O | –
72 | 175 | CCCCC/C=C\C/C=C\CCCCCCCC(=O)O | –
117 | 124 | CCCCCCCCC1CC1CCCCCCCC(=O)O (configuration not stated) | –
